Reference: ChEMBL document CHEMBL1201862, “PubChem BioAssay data set” (2004)
Active and inactive are the calls of the source.

Columns and labels:
[1] = biological target: Lysine-specific demethylase 4C (Homo sapiens, UniProt Q9H3R0); assay: GASC-1 (JMJD2C) histone demethylase inhibitors, dose response, biochemical, DELFIA europium, cherry-picked samples (AID 488835); type: functional
HeLa = assay: HeLa cell cytotoxicity, dose response, cytotoxicity control, 24 h, cherry-picked samples (AID 504726); type: functional, cell-based; details: Homo sapiens;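 further: potency for cytotoxicity as loss of luminescence signal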
ORF 73 = biological target: T1, ORF 73 (Human herpesvirus 8, UniProt O40947); assay: inhibitors of C-LANA binding to LBS DNA, dose response, biochemical, fluorescence polarization, cherry-picked samples (AID 504725); parameters: species or system Human gammaherpesvirus 8;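 further: fluorescence polarization of a labeled DNA duplex reporting LANA DNA binding; potency is for inhibitors that block LANA binding to the DNA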
T1 sequence (O40947 whole entry): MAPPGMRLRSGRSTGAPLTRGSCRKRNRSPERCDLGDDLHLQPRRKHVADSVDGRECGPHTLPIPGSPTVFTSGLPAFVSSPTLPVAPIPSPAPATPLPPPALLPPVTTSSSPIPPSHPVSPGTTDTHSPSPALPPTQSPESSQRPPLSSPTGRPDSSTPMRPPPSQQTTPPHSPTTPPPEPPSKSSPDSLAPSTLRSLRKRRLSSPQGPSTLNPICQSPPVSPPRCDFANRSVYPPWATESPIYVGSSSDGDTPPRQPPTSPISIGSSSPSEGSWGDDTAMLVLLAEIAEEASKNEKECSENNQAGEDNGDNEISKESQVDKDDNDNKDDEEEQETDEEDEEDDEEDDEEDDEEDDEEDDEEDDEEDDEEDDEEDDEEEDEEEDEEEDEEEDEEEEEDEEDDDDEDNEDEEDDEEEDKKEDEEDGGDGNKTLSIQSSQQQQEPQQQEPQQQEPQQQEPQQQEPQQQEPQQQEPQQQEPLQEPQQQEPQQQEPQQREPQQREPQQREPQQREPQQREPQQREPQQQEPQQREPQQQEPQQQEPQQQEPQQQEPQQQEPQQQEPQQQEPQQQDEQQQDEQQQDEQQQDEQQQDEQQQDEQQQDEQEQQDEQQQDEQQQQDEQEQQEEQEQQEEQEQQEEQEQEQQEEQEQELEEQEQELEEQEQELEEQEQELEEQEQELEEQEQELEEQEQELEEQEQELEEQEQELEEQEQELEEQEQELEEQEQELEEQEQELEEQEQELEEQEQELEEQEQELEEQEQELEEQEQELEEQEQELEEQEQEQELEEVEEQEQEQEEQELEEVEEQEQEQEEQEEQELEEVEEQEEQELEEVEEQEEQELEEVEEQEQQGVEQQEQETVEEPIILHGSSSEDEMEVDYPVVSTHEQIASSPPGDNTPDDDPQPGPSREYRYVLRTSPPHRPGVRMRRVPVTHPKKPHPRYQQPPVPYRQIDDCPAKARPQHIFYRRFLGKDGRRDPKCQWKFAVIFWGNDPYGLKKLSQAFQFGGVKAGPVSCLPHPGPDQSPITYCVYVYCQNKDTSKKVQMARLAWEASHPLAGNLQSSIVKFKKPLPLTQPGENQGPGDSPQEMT

Large T antigen = Large T antigen (Simian virus 40, UniProt P03070); type: functional, Betapolyomavirus macacae;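 further: Confirmatory-stage PubChem screen for compounds that inhibit SV40 T antigen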
Sequence of Large T antigen (P03070 whole entry): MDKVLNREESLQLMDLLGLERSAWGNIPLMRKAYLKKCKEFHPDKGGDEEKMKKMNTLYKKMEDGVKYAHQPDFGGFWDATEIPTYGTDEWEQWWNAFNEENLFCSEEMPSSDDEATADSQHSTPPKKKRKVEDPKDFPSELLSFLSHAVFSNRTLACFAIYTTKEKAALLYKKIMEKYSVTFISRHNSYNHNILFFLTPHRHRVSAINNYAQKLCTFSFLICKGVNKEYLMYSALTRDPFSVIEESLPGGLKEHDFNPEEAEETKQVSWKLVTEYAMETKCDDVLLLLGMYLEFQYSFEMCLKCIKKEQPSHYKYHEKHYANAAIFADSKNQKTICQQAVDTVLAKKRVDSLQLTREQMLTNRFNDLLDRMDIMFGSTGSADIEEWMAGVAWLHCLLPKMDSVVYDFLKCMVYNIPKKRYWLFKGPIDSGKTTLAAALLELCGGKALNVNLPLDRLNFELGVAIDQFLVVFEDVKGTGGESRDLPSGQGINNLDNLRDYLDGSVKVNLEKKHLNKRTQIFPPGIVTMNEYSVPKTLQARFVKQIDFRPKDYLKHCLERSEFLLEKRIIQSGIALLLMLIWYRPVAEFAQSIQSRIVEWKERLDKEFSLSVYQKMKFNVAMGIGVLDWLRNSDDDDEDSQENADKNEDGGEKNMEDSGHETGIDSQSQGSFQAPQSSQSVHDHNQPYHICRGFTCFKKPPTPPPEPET

Salmon testes DNA = assay: DNA intercalators displacing acridine orange, dose response, artefact control for KSHV LANA DNA-binding inhibitor project, biochemical, fluorescence polarization, cherry-picked samples, set 2 (AID 504727); parameters: species or system Salmonidae
[2] = biological target: T2, 1-phosphatidylinositol 4,5-bisphosphate phosphodiesterase gamma-1 (Homo sapiens, UniProt P19174); assay: Counterscreen for inhibitors of phospholipase C isozymes (PLC-B3): Fluorescence-based biochemical high throughput dose response assay to identify inhibitors of phospholipase C isozymes (PLC-gamma1).
T2 sequence (P19174 whole entry): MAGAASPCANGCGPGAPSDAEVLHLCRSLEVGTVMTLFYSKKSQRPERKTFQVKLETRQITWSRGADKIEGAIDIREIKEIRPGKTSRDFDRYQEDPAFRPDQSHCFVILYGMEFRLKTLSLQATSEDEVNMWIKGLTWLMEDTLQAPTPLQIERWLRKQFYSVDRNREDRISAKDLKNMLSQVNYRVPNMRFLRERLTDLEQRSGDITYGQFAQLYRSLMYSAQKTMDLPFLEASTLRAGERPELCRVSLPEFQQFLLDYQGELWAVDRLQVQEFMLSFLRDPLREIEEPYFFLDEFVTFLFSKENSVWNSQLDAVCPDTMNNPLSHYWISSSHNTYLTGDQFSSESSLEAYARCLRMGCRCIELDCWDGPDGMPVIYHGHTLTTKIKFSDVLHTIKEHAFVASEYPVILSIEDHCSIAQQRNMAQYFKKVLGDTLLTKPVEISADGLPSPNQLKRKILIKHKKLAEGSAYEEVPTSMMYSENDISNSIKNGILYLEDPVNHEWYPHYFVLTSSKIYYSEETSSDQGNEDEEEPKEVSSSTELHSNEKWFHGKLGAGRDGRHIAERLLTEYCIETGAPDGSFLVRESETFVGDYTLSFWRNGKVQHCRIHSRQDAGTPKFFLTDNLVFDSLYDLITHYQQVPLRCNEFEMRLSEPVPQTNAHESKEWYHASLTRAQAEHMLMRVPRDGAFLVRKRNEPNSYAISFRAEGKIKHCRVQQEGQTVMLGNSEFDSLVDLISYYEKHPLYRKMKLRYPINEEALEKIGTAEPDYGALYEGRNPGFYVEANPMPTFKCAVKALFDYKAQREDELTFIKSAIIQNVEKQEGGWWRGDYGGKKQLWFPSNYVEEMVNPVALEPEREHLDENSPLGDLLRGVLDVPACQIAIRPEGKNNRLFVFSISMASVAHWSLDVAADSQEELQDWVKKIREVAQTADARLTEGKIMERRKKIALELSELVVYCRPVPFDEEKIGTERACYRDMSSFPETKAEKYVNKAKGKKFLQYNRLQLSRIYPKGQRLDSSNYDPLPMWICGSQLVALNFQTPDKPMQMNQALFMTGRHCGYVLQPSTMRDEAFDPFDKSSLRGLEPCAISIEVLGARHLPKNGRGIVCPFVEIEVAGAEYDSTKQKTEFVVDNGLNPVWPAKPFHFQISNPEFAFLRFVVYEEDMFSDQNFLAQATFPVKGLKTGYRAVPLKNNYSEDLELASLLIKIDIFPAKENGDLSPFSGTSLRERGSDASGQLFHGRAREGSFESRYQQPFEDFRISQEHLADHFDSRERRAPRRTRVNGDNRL

[3] = biological target: Intestinal-type alkaline phosphatase (Homo sapiens, UniProt P09923); assay: inhibition of human intestinal alkaline phosphatase – biochemical, dose response (AID 488876); type: functional
Sequence of Intestinal-type alkaline phosphatase (P09923 whole entry): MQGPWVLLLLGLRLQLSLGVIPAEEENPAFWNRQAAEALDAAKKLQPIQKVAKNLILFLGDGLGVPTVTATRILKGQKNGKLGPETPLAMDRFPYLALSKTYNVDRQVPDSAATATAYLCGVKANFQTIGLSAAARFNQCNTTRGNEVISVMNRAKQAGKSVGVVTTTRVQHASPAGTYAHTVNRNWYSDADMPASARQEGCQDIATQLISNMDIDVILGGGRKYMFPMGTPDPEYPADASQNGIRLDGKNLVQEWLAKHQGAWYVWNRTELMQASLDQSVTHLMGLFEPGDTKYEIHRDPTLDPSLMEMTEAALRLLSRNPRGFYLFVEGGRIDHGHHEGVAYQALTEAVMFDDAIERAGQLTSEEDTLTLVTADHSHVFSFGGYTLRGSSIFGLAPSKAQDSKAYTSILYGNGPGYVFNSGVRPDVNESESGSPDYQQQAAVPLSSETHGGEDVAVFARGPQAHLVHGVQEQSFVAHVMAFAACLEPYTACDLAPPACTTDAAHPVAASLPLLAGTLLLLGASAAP

[4] = NIH-3T3 fibroblast cytotoxicity, dose response, cytotoxicity control, cell-based, fluorescence, Alamar Blue, secondary assay (AID 2327); type: functional;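 further: NIH-3T3 mouse fibroblasts cultured with fluconazole at 8 µg/mL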
[5] = biological target: Polyadenylate-binding protein 1 (Homo sapiens, UniProt P11940); assay: PABP1 MLLE–PAM2 binding inhibitor potency, dose response, biochemical, fluorescence polarization, FITC-PAM2 peptide (AID 602259); type: functional; details: read-out: IC50_Mean
Sequence of Polyadenylate-binding protein 1 (P11940 whole entry): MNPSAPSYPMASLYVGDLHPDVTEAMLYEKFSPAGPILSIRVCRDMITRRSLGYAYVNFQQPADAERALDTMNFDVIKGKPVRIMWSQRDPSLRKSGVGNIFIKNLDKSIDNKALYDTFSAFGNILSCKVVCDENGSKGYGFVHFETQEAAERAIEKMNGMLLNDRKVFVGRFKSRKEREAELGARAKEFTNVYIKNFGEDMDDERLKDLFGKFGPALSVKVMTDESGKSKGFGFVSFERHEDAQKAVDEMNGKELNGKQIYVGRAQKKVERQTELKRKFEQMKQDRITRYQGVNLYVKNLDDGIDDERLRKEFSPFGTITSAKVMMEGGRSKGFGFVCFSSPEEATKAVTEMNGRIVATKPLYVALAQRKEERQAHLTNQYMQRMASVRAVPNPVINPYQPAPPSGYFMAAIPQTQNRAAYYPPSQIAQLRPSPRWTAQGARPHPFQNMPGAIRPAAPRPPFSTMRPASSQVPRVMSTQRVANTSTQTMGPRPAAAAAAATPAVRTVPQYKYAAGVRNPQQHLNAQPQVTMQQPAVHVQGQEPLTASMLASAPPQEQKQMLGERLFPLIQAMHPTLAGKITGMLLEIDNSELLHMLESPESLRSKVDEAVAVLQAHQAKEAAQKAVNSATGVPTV

Procathepsin L = Procathepsin L (Homo sapiens, UniProt P07711)
Sequence of Procathepsin L (P07711 whole entry): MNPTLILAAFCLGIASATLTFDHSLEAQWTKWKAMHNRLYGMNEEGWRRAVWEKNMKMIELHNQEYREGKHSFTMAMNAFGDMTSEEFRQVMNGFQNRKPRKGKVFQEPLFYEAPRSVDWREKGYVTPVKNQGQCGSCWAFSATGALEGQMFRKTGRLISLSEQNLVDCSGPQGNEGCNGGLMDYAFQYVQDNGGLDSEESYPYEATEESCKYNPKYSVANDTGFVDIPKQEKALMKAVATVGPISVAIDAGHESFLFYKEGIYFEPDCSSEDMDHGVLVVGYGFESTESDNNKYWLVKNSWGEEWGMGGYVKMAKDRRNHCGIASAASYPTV

Sequence of Lysine-specific demethylase 4C (Q9H3R0 whole entry): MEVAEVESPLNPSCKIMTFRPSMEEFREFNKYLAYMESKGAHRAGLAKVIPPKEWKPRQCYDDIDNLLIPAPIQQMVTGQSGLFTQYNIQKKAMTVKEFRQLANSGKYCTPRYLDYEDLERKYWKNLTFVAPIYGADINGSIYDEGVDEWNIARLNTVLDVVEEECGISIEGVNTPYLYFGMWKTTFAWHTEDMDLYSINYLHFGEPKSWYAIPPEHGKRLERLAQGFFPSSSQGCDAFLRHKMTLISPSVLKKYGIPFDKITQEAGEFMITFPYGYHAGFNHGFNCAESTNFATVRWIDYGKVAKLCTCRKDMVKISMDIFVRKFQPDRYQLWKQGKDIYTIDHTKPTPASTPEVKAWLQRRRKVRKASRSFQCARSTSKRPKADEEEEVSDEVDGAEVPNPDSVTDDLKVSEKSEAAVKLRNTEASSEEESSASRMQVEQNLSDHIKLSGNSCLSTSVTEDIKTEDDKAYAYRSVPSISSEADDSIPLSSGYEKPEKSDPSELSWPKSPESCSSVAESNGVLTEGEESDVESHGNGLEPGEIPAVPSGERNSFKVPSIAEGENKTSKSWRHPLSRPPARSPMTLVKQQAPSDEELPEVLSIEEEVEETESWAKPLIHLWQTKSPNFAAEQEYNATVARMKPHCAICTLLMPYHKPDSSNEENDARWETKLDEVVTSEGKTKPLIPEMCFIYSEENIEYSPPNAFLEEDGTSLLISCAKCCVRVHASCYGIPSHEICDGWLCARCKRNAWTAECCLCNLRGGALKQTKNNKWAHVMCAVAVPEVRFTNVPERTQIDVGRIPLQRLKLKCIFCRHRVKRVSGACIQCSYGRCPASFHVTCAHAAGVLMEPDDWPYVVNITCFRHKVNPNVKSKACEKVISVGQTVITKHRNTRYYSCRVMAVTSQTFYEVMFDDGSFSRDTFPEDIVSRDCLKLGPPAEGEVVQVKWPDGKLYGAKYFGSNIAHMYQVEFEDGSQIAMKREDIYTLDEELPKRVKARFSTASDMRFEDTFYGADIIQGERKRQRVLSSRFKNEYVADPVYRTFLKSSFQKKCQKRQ

## Cc1cc(C)c(S(=O)(=O)Nc2cc(SCC(=O)O)c(O)c3ccccc23)cc1C
[1]
  AC50: 13 µM (active)

## O=C(O)c1cc(N2N=C(C(F)(F)F)/C(=C/C=C/c3ccco3)C2=O)ccc1Cl
HeLa
  AC50: 24.9 µM (active)
ORF 73
  AC50: 2.28 µM (active)
Large T antigen
  IC50: 4.47 µM (active)
Salmon testes DNA
  AC50: 126 µM (active)

## O=C(/C=C/c1ccco1)NC(=S)Nc1cccc(C(=O)O)c1
[2]
  IC50: > 122 µM (inactive)
[3]
  IC50: > 100 µM (inactive)

## CNCc1ccccc1Sc1ccc(O)c(O)c1
[4]
  EC50: > 150 µM (inactive)
[5]
  IC50: > 66 µM (inactive)
Procathepsin L
  IC50: > 59.6 µM (not active)
